How the values were obtained:
[1] = system: cleaved caspase 3; assay: Western blot of cleaved caspase 3 after TGF-β2 stimulation in iFECD; format: cell-based, human; settings: 3 pmol mTOR siRNA, then TGF-β2 10 ng/ml 24 h, FIG. 8
Description: (§1) The medium was removed from a culture dish in which iFECDs were being cultured, and the cells were supplemented with 1×PBS (−) that was preheated to 37° C., and were washed. This was repeated twice. The cells were supplemented again with 1×PBS (−) and incubated for 3 minutes at 37° C. (5% CO2). After removing the PBS (−), the cells were supplemented with 0.05% Trypsin-EDTA (Nacalai Tesque, 32778-34) and incubated for 5 minutes at 37° C. (5% CO2). The cells were then suspended in a medium, and collected by centrifugation at 1500 rpm for 3 minutes. DMEM (Nacalai Tesque, 08456-36)+10% FBS (Biowest, S1820-500)+1% P/S (Nacalai Tesque, 26252-94) was used as the medium.
(§2) iFECDs were seeded on a 12-well plate at a ratio of 1×10^5 cells per well and cultured for 24 hours at 37° C. (5% CO2) (DMEM+10% FBS+1% P/S was used as the medium). After 24 hours, the medium was removed. Rapamycin was added to culture the cells for 24 hours. (DMEM+2% FBS+1% P/S was used as the medium). After 24 hours, the medium was removed. A medium containing 10 ng/ml of Recombinant Human TGF-β2 (Wako, 200-19911) and rapamycin was added to culture the cells for 24 hours. […]
8 μg of the extracted protein was separated by SDS-PAGE and transferred onto a nitrocellulose membrane. […] The detected band strength was analyzed with a lumino image analyzer LAS-4000 mini (Fuji Film) and ImageQuant™ software (GE Healthcare). […]

[2] = system: fibronectin; assay: Western blot of fibronectin production induced by TGF-β2 in iFECD; format: cell-based, human; settings: 3 pmol mTOR siRNA, then TGF-β2 10 ng/ml 24 h, FIG. 9
Description: as §1
as §2, with “6-well” for “12-well”, “2×10^5” for “1×10^5”
5 μg of the extracted protein was separated by SDS-PAGE and transferred onto a nitrocellulose membrane. […] The detected band strength was analyzed with a lumino image analyzer LAS-4000 mini (Fuji Film) and ImageQuant™ software (GE Healthcare). […]

“mTOR siRNA: siRNA against mTOR gene (Ambion, AS026M0L); sense strand SEQ ID NO: 1, antisense strand SEQ ID NO: 2 (sense CAUUCGCAUUCAGUCCAUATT; antisense UAUGGACUGAAUGCGAAUGAT; chemistry not given here)” was tested, and the “activated form of cleaved caspase-3 (about 17 kDa), western blot” value [1] was “hardly observed” and the “production of fibronectin induced by TGF-β2, western blot” value [2] was “hardly observed”.

Source: US11433090B2, “mTOR-inhibitor-containing medicine for treating or preventing ophthalmic symptoms, disorders, or diseases, and application thereof” (The Doshisha, priority 2017, dated 2022)
